# Results reported in patent US8168631B2, “3-(4-fluorophenyl)-3-hydroxy-2-amino-propionic acid amides and related compounds having analgesic activity” (Allergan, Inc., priority 2008, dated 2012).
# Where a name gives a salt, the structure may show the parent alone.
# System: nerve-ligation induced pain (rat model of spinal nerve ligation, SNL)
# Experiment: Neuropathic pain model (Chung model): rat spinal nerve ligation, mechanical allodynia by Von Frey hairs
# Format: in vivo
# Conditions: for reversed pain in the Chung model: 1 mg/kg, time not given
# Method: [drawing 23] and all racemic mixtures of the two optical isomers are also included. Analgesic Activity in the Neuropathic Pain Model (the Chung Model)
# Several of the compounds disclosed herein were tested in the rat model of spinal nerve ligation (SNL) which involves a traumatic partial nerve injury, involving tight ligation of the L5 and L6 spinal nerves (Kim and Chung, 1992). Pain, including mechanical allodynia and thermal hyperalgesia, persists in the absence of ongoing tissue injury for more than 2 months following the surgery. The ability of the drug to alleviate the mechanical allodynia was assessed using a series of Von Frey hairs applied to the mid-plantar area of the ipsilateral hind paw before and after drug administration. The paw withdrawal threshold was determined using a standard up-down testing method (Dixon, 1980) and expressed relative to the paw withdrawal threshold in uninjured rats.
# • Kim S H, Chung J M. An experimental model for peripheral neuropathy produced by segmental spinal nerve ligation in the rat, Pain 1992; 50 (3): 355-63. • Dixon W J. Efficient analysis of experimental observations. Annu Rev Pharmacol Toxicol 1980; 20: 441-62.
SMILES,reversed pain in the Chung model,"Percent pain reversal at time in min (dose 0.3 mg/kg, 15 min)","Percent pain reversal at time in min (dose 0.3 mg/kg, 30 min)","Percent pain reversal at time in min (dose 0.3 mg/kg, 60 min)","Percent pain reversal at time in min (dose 1 mg/kg, 15 min)","Percent pain reversal at time in min (dose 1 mg/kg, 30 min)","Percent pain reversal at time in min (dose 1 mg/kg, 60 min)","Percent pain reversal at time in min (dose 0.1 mg/kg, 15 min)","Percent pain reversal at time in min (dose 0.1 mg/kg, 30 min)","Percent pain reversal at time in min (dose 0.1 mg/kg, 60 min)"
"N[C@@H](C(=O)N1CCCC1)[C@@H](O)c1ccc(F)cc1 (racemic) [Compound 1, (±)-threo-2-Amino-3-(4-fluorophenyl)-3-hydroxy-1-(pyrrolidin-1-yl)propan-1-one hydrochloride]",64%,17%,29%,52%,28%,52%,64%,–,–,–
N[C@@H](C(=O)N1CCCC1)[C@@H](O)c1ccc(I)cc1 (racemic) [reference compound],–,4.3%,5.8%,7.3%,–,–,–,–,–,–
N[C@@H](C(=O)N1CCCC1)[C@@H](O)c1ccc(Cl)cc1 (racemic) [reference compound],–,4.8%,7.5%,8.6%,–,–,–,–,–,–
"N[C@@H](C(=O)N1CCCC1)[C@@H](O)c1ccc(F)cc1 [Compound 3, (−)-threo-2-Amino-3-(4-fluorophenyl)-3-hydroxy-1-(pyrrolidin-1-yl)propan-1-one hydrochloride]",86%,26.7%,53.6%,75.5%,57.2%,73.5%,86.2%,1.2%,20.2%,43.2%
